Laboratory results published in PubChem BioAssay (NCI).
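Test compounds were applied to cells in 96-well plates for 48 hours at 5 doses. TGI: total growth inhibition.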

Columns and labels:
Experiment in all cases: NCI-60 cell line screen, 48 h
[1] = tested on: NCI-H522 lung
[2] = tested on: PC-3 prostate
[3] = tested on: NCI-H23 lung
[4] = tested on: K-562 leukemia
[5] = tested on: HOP-62 NSCLC
[6] = tested on: T-47D breast
[7] = tested on: UO-31 renal
[8] = tested on: MDA-MB-231 breast
[9] = tested on: RPMI-8226 leukemia
[10] = tested on: IGROV1 ovarian
[11] = tested on: MALME-3M melanoma
[12] = tested on: SK-MEL-28 melanoma
[13] = tested on: A549 NSCLC
[14] = tested on: HCT-116 colon
[15] = tested on: UACC-62 melanoma
[16] = tested on: CCRF-CEM leukemia
[17] = tested on: OVCAR-5 ovarian
[18] = tested on: SR leukemia
[19] = tested on: SF-268 CNS
[20] = tested on: OVCAR-8 ovarian
[21] = tested on: SK-MEL-5 melanoma
[22] = tested on: HS 578T breast
[23] = tested on: CAKI-1 renal
[24] = tested on: MOLT-4 leukemia
[25] = tested on: HCT-15 colon
[26] = tested on: EKVX NSCLC
[27] = tested on: SK-MEL-2 melanoma
[28] = tested on: SF-295 CNS
[29] = tested on: DU-145 prostate
[30] = tested on: U251 CNS
[31] = tested on: COLO 205 colon
[32] = tested on: SN12C renal
[33] = tested on: 786-0 renal
[34] = tested on: OVCAR-3 ovarian
[35] = tested on: SK-OV-3 ovarian
[36] = tested on: BT-549 breast
[37] = tested on: MCF7 breast
[38] = tested on: HT29 colon
[39] = tested on: HCC-2998 colon
[40] = tested on: HL-60(TB) leukemia
[41] = tested on: NCI-H226 lung
[42] = tested on: RXF 393 renal
[43] = tested on: MDA-N
[44] = tested on: ACHN renal
[45] = tested on: M14 melanoma
[46] = tested on: NCI/ADR-RES ovarian
[47] = tested on: A498 renal
[48] = tested on: OVCAR-4 ovarian
[49] = tested on: NCI-H460 lung
[50] = tested on: UACC-257 melanoma
[51] = tested on: LOX IMVI melanoma
[52] = tested on: TK-10 renal
[53] = tested on: SW-620 colon
[54] = tested on: SF-539 CNS
[55] = tested on: SNB-75 CNS
[56] = tested on: SNB-19 CNS
[57] = tested on: KM12 colon
[58] = tested on: MDA-MB-435
[59] = tested on: HOP-92 NSCLC

In the case of `CCCC(=O)OC1CC(n2cc(F)c(=O)[nH]c2=O)OC1CO` (configuration not stated), the TGI [1] was > 10 µM, the TGI [2] was > 10 µM and the TGI [3] was 1.11 µM. For the same molecule, the TGI [4] was > 10 µM, the TGI [5] was > 10 µM and the TGI [6] was > 10 µM. For the same molecule, the TGI [7] was > 10 µM, the TGI [8] was > 10 µM and the TGI [9] was > 10 µM. For the same molecule, the TGI [10] was > 10 µM, the TGI [11] was > 10 µM and the TGI [12] was > 10 µM. The TGI [13] was > 10 µM, the TGI [14] was > 10 µM and the TGI [15] was > 10 µM. For the same molecule, the TGI [16] was > 10 µM, the TGI [17] was > 10 µM and the TGI [18] was > 10 µM. The TGI [19] was > 10 µM, the TGI [20] was > 10 µM and the TGI [21] was 1.84 µM. For the same molecule, the TGI [22] was > 10 µM, the TGI [23] was > 10 µM and the TGI [24] was > 10 µM. For the same molecule, the TGI [25] was > 10 µM, the TGI [26] was > 10 µM and the TGI [27] was > 10 µM. For the same molecule, the TGI [28] was > 10 µM, the TGI [29] was > 3.23 µM and the TGI [30] was > 10 µM. The TGI [31] was > 10 µM, the TGI [32] was > 10 µM and the TGI [33] was > 10 µM. For the same molecule, the TGI [34] was > 10 µM, the TGI [35] was > 10 µM and the TGI [36] was > 10 µM. For the same molecule, the TGI [37] was > 10 µM, the TGI [38] was > 10 µM and the TGI [39] was > 10 µM. For the same molecule, the TGI [40] was > 10 µM, the TGI [41] was > 10 µM and the TGI [42] was > 10 µM. For the same molecule, the TGI [43] was > 10 µM, the TGI [44] was > 10 µM and the TGI [45] was > 5.96 µM. For the same molecule, the TGI [46] was > 10 µM, the TGI [47] was > 10 µM and the TGI [48] was > 10 µM. The TGI [49] was > 10 µM, the TGI [50] was > 10 µM and the TGI [51] was > 10 µM. For the same molecule, the TGI [52] was > 8.81 µM, the TGI [53] was > 10 µM and the TGI [54] was 0.385 µM. For the same molecule, the TGI [55] was > 8.14 µM, the TGI [56] was > 10 µM and the TGI [57] was > 10 µM. The TGI [58] was > 10 µM.
Work on `Cc1nn(-c2ccccn2)c2c1C(SC#N)=C(C=O)CC2` yielded a TGI [1] of 46 µM, a TGI [2] of 33.8 µM and a TGI [3] of 32.2 µM. The TGI [4] was 39 µM, the TGI [5] was 22.3 µM and the TGI [6] was 20.3 µM. For the same molecule, the TGI [7] was 29.1 µM, the TGI [8] was 31.9 µM and the TGI [9] was 63 µM. For the same molecule, the TGI [10] was 23.7 µM, the TGI [11] was 36.2 µM and the TGI [12] was 45.9 µM. The TGI [13] was 46 µM, the TGI [14] was 37.1 µM and the TGI [15] was 18.3 µM. It also gave a TGI [16] of 6.43 µM, a TGI [17] of 20.7 µM and a TGI [18] of 34.3 µM. It also gave a TGI [19] of 33 µM, a TGI [20] of 30.8 µM and a TGI [21] of 28.2 µM. For the same molecule, the TGI [22] was > 100 µM, the TGI [23] was 19 µM and the TGI [24] was 6.95 µM. It also gave a TGI [25] of 34 µM, a TGI [26] of 36.1 µM and a TGI [27] of 30.5 µM. For the same molecule, the TGI [28] was > 100 µM, the TGI [29] was 28.2 µM and the TGI [30] was 28.8 µM. The TGI [31] was 22.2 µM, the TGI [32] was 40.3 µM and the TGI [33] was 25.1 µM. For the same molecule, the TGI [34] was 26.5 µM, the TGI [35] was 61.5 µM and the TGI [36] was 38.9 µM. The TGI [37] was 24.2 µM, the TGI [38] was 47 µM and the TGI [39] was 24.2 µM. For the same molecule, the TGI [40] was 16 µM, the TGI [42] was 17.6 µM and the TGI [43] was 38.6 µM. The TGI [44] was 29.8 µM, the TGI [45] was 31.7 µM and the TGI [59] was 34.5 µM. It also gave a TGI [46] of 45.5 µM, a TGI [47] of 5.57 µM and a TGI [49] of 34.9 µM. For the same molecule, the TGI [50] was 17.8 µM, the TGI [51] was 29.1 µM and the TGI [52] was 6.03 µM. It also gave a TGI [53] of 59.3 µM, a TGI [54] of 36.1 µM and a TGI [55] of 30.1 µM. It also gave a TGI [56] of 47.8 µM, a TGI [57] of 32.7 µM and a TGI [58] of 37.7 µM.
For `O=C(Nc1ccccc1C(=O)Nc1nccs1)c1ccccc1`, the TGI [1] was > 100 µM, the TGI [2] was > 100 µM and the TGI [3] was > 100 µM. For the same molecule, the TGI [4] was > 100 µM, the TGI [5] was > 100 µM and the TGI [6] was 56.4 µM. The TGI [7] was > 100 µM, the TGI [8] was > 100 µM and the TGI [9] was > 100 µM. For the same molecule, the TGI [10] was > 100 µM, the TGI [11] was > 100 µM and the TGI [12] was > 100 µM. The TGI [13] was > 100 µM, the TGI [14] was > 100 µM and the TGI [15] was > 100 µM. For the same molecule, the TGI [16] was > 100 µM, the TGI [17] was > 100 µM and the TGI [18] was > 100 µM. The TGI [19] was 60.9 µM, the TGI [20] was > 100 µM and the TGI [21] was 67.3 µM. For the same molecule, the TGI [22] was > 100 µM, the TGI [23] was > 100 µM and the TGI [24] was > 100 µM. For the same molecule, the TGI [25] was > 100 µM, the TGI [26] was > 100 µM and the TGI [27] was > 100 µM. For the same molecule, the TGI [28] was > 100 µM, the TGI [29] was > 100 µM and the TGI [30] was > 100 µM. The TGI [31] was > 100 µM, the TGI [32] was > 100 µM and the TGI [33] was > 100 µM. The TGI [34] was 36.6 µM, the TGI [35] was > 100 µM and the TGI [36] was > 100 µM. The TGI [37] was > 100 µM, the TGI [38] was > 100 µM and the TGI [39] was > 100 µM. For the same molecule, the TGI [40] was > 100 µM, the TGI [41] was > 100 µM and the TGI [43] was > 100 µM. The TGI [44] was > 100 µM, the TGI [45] was > 100 µM and the TGI [46] was > 100 µM. The TGI [47] was > 100 µM, the TGI [49] was > 100 µM and the TGI [50] was > 100 µM. The TGI [51] was > 100 µM, the TGI [52] was > 100 µM and the TGI [53] was > 100 µM. For the same molecule, the TGI [54] was > 100 µM, the TGI [55] was > 100 µM and the TGI [56] was > 100 µM. The TGI [57] was > 100 µM and the TGI [58] was > 100 µM.
Molecule `COc1ccc(NC(=S)NNC(=O)c2cc(-c3ccccc3)nc3ccccc23)cc1` has a TGI [1] of 50.7 µM, a TGI [2] of 55.1 µM and a TGI [3] of 30.6 µM. For the same molecule, the TGI [4] was 46.5 µM, the TGI [5] was 33.3 µM and the TGI [6] was 59.7 µM. For the same molecule, the TGI [7] was 26.3 µM, the TGI [8] was 51.2 µM and the TGI [9] was 43.2 µM. For the same molecule, the TGI [10] was > 100 µM, the TGI [11] was 54 µM and the TGI [12] was 43.3 µM. The TGI [13] was 47 µM, the TGI [14] was 27 µM and the TGI [15] was 30.6 µM. It also gave a TGI [16] of 34.8 µM, a TGI [17] of 58.8 µM and a TGI [18] of 9.79 µM. For the same molecule, the TGI [19] was 90.1 µM, the TGI [20] was 38.9 µM and the TGI [21] was 25.6 µM. The TGI [22] was 75.5 µM, the TGI [23] was 60 µM and the TGI [24] was 59.2 µM. The TGI [25] was 33.7 µM, the TGI [27] was 38.9 µM and the TGI [28] was 16.4 µM. It also gave a TGI [29] of 45.4 µM, a TGI [30] of 38.5 µM and a TGI [31] of 97.4 µM. It also gave a TGI [32] of 48.6 µM, a TGI [33] of 40.5 µM and a TGI [34] of 33.1 µM. For the same molecule, the TGI [35] was 15.9 µM, the TGI [36] was 39.8 µM and the TGI [37] was 17 µM. The TGI [38] was 39.3 µM, the TGI [39] was 24.6 µM and the TGI [41] was 42.8 µM. The TGI [42] was 44.6 µM, the TGI [43] was 15.5 µM and the TGI [44] was 87.3 µM. The TGI [45] was 31.9 µM, the TGI [59] was 31.9 µM and the TGI [46] was 35.5 µM. It also gave a TGI [47] of 35.1 µM, a TGI [48] of 65.1 µM and a TGI [49] of 35.9 µM. For the same molecule, the TGI [50] was 46.9 µM, the TGI [52] was 46.8 µM and the TGI [53] was 41.6 µM. For the same molecule, the TGI [54] was 27.2 µM, the TGI [55] was 70.3 µM and the TGI [56] was > 100 µM. For the same molecule, the TGI [57] was > 100 µM and the TGI [58] was 13.4 µM.
